Some test systems named below: MDA-N; IGROV1 ovarian; HCC-2998 colon; CCRF-CEM leukemia; SF-295 CNS; OVCAR-5 ovarian; HOP-92 NSCLC; ACHN renal; RXF 393 renal; LOX IMVI melanoma; HOP-62 NSCLC; MCF7 breast; EKVX NSCLC; SW-620 colon; RPMI-8226 leukemia; SK-MEL-2 melanoma; U251 CNS; NCI-H522 lung.
Holding throughout (test): growth of human tumour cells (NCI), 48 h

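Growth conditions: 96-well plates. Treatment: test compound, 48 hours, 5 concentrations. Analysis: linear interpolation between bracketing concentrations; unreached endpoints set to highest concentration. TGI: total growth inhibition.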

As for `c1ccc(C2C3=C(c4ccccc4CC3)N3c4cc5nc6ccccc6nc5cc4NC34CCCCC24)cc1` (centres undefined), the TGI in the experiment with MDA-N is above 10 µM; in the experiment with IGROV1 ovarian, above 10 µM; in the experiment with HCC-2998 colon, above 10 µM; with CCRF-CEM leukemia, 5.9 µM; in the experiment on SF-295 CNS it was above 10 µM; in the experiment on OVCAR-5 ovarian, above 10 µM. Besides, the TGI in the experiment with HOP-92 NSCLC, in the experiment with ACHN renal, in the experiment with RXF 393 renal, in the experiment with LOX IMVI melanoma, with HOP-62 NSCLC and in the experiment on MCF7 breast was above 10 µM throughout. Moreover, the TGI is above 10 µM in the experiment with EKVX NSCLC; above 10 µM in the experiment on SW-620 colon; above 9.17 µM in the experiment with RPMI-8226 leukemia; above 10 µM in the experiment on SK-MEL-2 melanoma; above 10 µM in the experiment with U251 CNS.
Turning to `O=C(OC1C#CCSCC#C/C=C\1)c1cnc2ccccc2n1` (centres undefined), the TGI in the experiment with MDA-N, in the experiment with IGROV1 ovarian, with NCI-H522 lung, with HCC-2998 colon, in the experiment on CCRF-CEM leukemia and in the experiment with SF-295 CNS was above 100 µM in each case. Besides, the TGI in the experiment with OVCAR-5 ovarian, in the experiment with HOP-92 NSCLC, in the experiment with ACHN renal, in the experiment on RXF 393 renal, with LOX IMVI melanoma and in the experiment on HOP-62 NSCLC was above 100 µM throughout. Further, the TGI in the experiment with MCF7 breast, in the experiment with EKVX NSCLC, with SW-620 colon, in the experiment on SK-MEL-2 melanoma and with U251 CNS was above 100 µM in each case.
`CCOc1ccc(-n2c(=O)c3nn4c(=O)n(-c5ccc(OCC)cc5)c(=O)c4nn3c2=O)cc1`: the TGI with MDA-N, in the experiment on IGROV1 ovarian, with NCI-H522 lung, in the experiment with HCC-2998 colon, with SF-295 CNS and in the experiment on OVCAR-5 ovarian was above 100 µM in each case. In addition, the TGI in the experiment on HOP-92 NSCLC, in the experiment on ACHN renal, in the experiment on RXF 393 renal, in the experiment on LOX IMVI melanoma, in the experiment on HOP-62 NSCLC and with MCF7 breast was above 100 µM each time. The TGI with EKVX NSCLC, in the experiment with SW-620 colon, in the experiment on RPMI-8226 leukemia, with SK-MEL-2 melanoma and in the experiment with U251 CNS was above 100 µM in each case.
`Cc1ccc(C2=NN=C3C(c4ccccc4)=Nc4ccccc4N3C2)cc1`: the TGI was above 100 µM with MDA-N; above 100 µM in the experiment on IGROV1 ovarian; 26.8 µM in the experiment on NCI-H522 lung; above 100 µM with HCC-2998 colon; above 100 µM with SF-295 CNS; 99.6 µM in the experiment on OVCAR-5 ovarian. In addition, the TGI is above 72.9 µM in the experiment with HOP-92 NSCLC; above 100 µM with ACHN renal; 33.7 µM in the experiment on RXF 393 renal; above 100 µM in the experiment with LOX IMVI melanoma; above 63.8 µM with HOP-62 NSCLC; above 89.3 µM in the experiment with MCF7 breast. The TGI is above 42.6 µM in the experiment on EKVX NSCLC; above 100 µM in the experiment with SW-620 colon; above 73 µM in the experiment with RPMI-8226 leukemia; above 100 µM with SK-MEL-2 melanoma; above 81.1 µM in the experiment with U251 CNS.
As for `CO[C@@H]1C[C@H]2[C@@H]3CC[C@H]([C@@H](C)COC(C)=O)[C@@]3(C)CC[C@@H]2[C@@]2(C)CC[C@H]3C[C@]312`, the TGI in the experiment with MDA-N came to 35.4 µM; in the experiment on IGROV1 ovarian it was 30.2 µM; in the experiment on NCI-H522 lung, 33.2 µM; in the experiment on HCC-2998 colon, 28.6 µM; in the experiment with CCRF-CEM leukemia it was 40.7 µM; with SF-295 CNS it was 28.3 µM. Further, the TGI came to 23.6 µM with OVCAR-5 ovarian; 35.2 µM with HOP-92 NSCLC; 30.2 µM with ACHN renal; 35.7 µM in the experiment on RXF 393 renal; 23.6 µM in the experiment on LOX IMVI melanoma; 31.5 µM in the experiment with HOP-62 NSCLC. Moreover, the TGI in the experiment on MCF7 breast came out at 23.6 µM; with EKVX NSCLC it was 28 µM; in the experiment with SW-620 colon it was 27.3 µM; in the experiment on RPMI-8226 leukemia, 29.9 µM; with U251 CNS, 25.8 µM.
As to `Cc1ccc([N+](=O)[O-])cc1S(=O)(=O)Nc1ccc(C(=O)/C=C/c2ccccc2)cc1`, the TGI worked out at 42.8 µM in the experiment on MDA-N; 39.6 µM in the experiment on IGROV1 ovarian; 53 µM in the experiment with NCI-H522 lung; 32.1 µM in the experiment on HCC-2998 colon; 69.9 µM in the experiment with CCRF-CEM leukemia; 44.1 µM with SF-295 CNS. For the same molecule, the TGI in the experiment with OVCAR-5 ovarian stood at 54.7 µM; with HOP-92 NSCLC, 41.1 µM; in the experiment on ACHN renal, 28 µM; in the experiment on RXF 393 renal it was 25 µM; in the experiment on LOX IMVI melanoma, 36.7 µM; in the experiment on HOP-62 NSCLC, 34.5 µM. Also, the TGI with MCF7 breast turned out to be 26.8 µM; in the experiment on EKVX NSCLC, 33.5 µM; in the experiment on SW-620 colon, 59.4 µM; in the experiment on RPMI-8226 leukemia, 37.1 µM; with SK-MEL-2 melanoma, 38.2 µM.
Take `CC(C)C1=CC23CCC4C(C)(C(=O)O)CCCC4(C)C2CC1C1C(=O)N(c2ccc(N4C(=O)C5C6CC7C8(C)CCCC(C)(C(=O)O)C8CCC7(C=C6C(C)C)C5C4=O)cc2)C(=O)C13` (centres undefined): the TGI in the experiment with MDA-N was 16.1 µM; in the experiment with NCI-H522 lung it was 17 µM; in the experiment on HCC-2998 colon, 16.4 µM; in the experiment on CCRF-CEM leukemia it was 19.4 µM; with OVCAR-5 ovarian, 22 µM; in the experiment with HOP-92 NSCLC it was 28.5 µM. For the same molecule, the TGI with ACHN renal turned out to be 18.4 µM; with RXF 393 renal it was 24.7 µM; in the experiment on HOP-62 NSCLC, 19.3 µM; with MCF7 breast, 13.5 µM; with EKVX NSCLC, 18.7 µM; with SW-620 colon, 21.6 µM. The results for the TGI in the experiment on RPMI-8226 leukemia, in the experiment on SK-MEL-2 melanoma and with U251 CNS were 80.3 µM, 26.7 µM and 14.4 µM, respectively.
With `O=c1[nH]ncc2[nH]c(-c3ccccc3)cc12`, the TGI in the experiment on MDA-N, with IGROV1 ovarian, in the experiment with HCC-2998 colon, in the experiment on CCRF-CEM leukemia, in the experiment on SF-295 CNS and in the experiment with OVCAR-5 ovarian was above 100 µM throughout. In addition, the TGI was above 100 µM in the experiment on HOP-92 NSCLC; above 100 µM in the experiment with ACHN renal; 96.5 µM in the experiment on RXF 393 renal; above 100 µM in the experiment with LOX IMVI melanoma; above 100 µM in the experiment on HOP-62 NSCLC; above 100 µM in the experiment with MCF7 breast. The TGI in the experiment with EKVX NSCLC is above 100 µM; in the experiment with SW-620 colon, above 100 µM; with RPMI-8226 leukemia it was above 100 µM; with SK-MEL-2 melanoma, 71 µM; with U251 CNS, above 100 µM.

These data come from PubChem BioAssay (NCI).
